Where “and” joins values, the source holds several entries; their conditions need not be identical. Equal entries are not always repeated.
Experiments:
[1] = test system: 104 proteins (e.g., transporters, cell receptors, ion channels, and enzymes); assay: off-target screenings against 104 proteins
Description: (§1) Both patents are incorporated by reference herein in their entirety.

[2] = toxicokinetics in beagle dogs; format: in vivo
Description: as §1

[3] = China Phase I trial of Compound A monotherapy: pharmacokinetics; format: in vivo, human
Procedure: The pharmacokinetics of Compound A was also evaluated.
Patients who met the following inclusion criteria were enrolled in the trials in China: i) age≥18 years, no gender limits, and provide the informed consent form; ii) B-cell lymphoma classification is based on WHO classified definition, including CLL, small lymphocytic lymphoma (SLL); CLL with 17p-; MCL; WM; DLBCL, etc.; iii) measurable lesion: NHL requires at least one≥2 cm two-dimensional lesion diameter, CLL≥5000 leukemia cells/mm^3, WM IgM≥1000 mg/dL, bone marrow lymph plasma-like cells infiltration, histopathologically diagnosed as DLBCL; iv) patients failed in lymphoma treatment at least once and have no standard therapeutic options; DLBCL patients who are not suitable for or reject autologous stem cell transplantation; and v) ECOG (Eastern Cooperative Oncology Group) performance status 0˜1. Meanwhile, patients who met any one of the following criteria were excluded: i) disease with changes of pathological tissue types (including large cell transformation); ii) patients received other BTK inhibitor therapy (China only); and iii) patients with HIV infection, or HBs-Ag or HBc-Ab positive.
No intrapatient dose escalation of Compound A was permitted.

[4] = U.S. Phase Ia trial of Compound A monotherapy: safety
Procedure: Studies on the 200 mg and 300 mg cohorts were conducted in a standard 3+3 design.
Drug-related adverse events (AEs), including DLT, non-hematologic AEs and hematologic AEs were recorded. […] The PK indexes of single dose administration included AUClast, AUCO-∞, Cmax, tmax, t1/2, CL/F and Vd/F. The PK indexes of steady state under continuous administration included AUCss, Cmax,ss and tmax,ss.

[5] = five patients, 21 day dosing schedule

For `C=CC(=O)N1CC[C@@H](n2nc(-c3ccc(Oc4c(F)c(F)cc(F)c4F)cc3F)c3c(N)ncnc32)C1` [Compound A, 1-((R)-3-(4-amino-3-(2-fluoro-4-(2,3,5,6-tetrafluorophenoxy)phenyl)-1H-pyrazolo[3,4-d]pyrimidin-1-yl)pyrrolidin-1-yl)prop-2-en-1-one], the off-target inhibitory activities [1] was “no off-target inhibitory activities”, the toxicokinetics properties [2] was “Improved toxicokinetics properties” and the “Compound A Plasma Levels” value ([3]; Day 1, 100 mg, 2 h) was 107 ng/mL and 150 ng/mL. The “Compound A Plasma Levels” value ([3]; Day 1, 100 mg, 6 h) was 22.8 ng/mL and 29.4 ng/mL, the “Compound A Plasma Levels” value ([3]; Day 1, 400 mg, 4 h) was 243 ng/mL and 184 ng/mL and the “Compound A Plasma Levels” value ([3]; Day 1, 400 mg, 6 h) was 107 ng/mL and 130 ng/mL. The “Compound A Plasma Levels” value ([3]; Day 8, 100 mg, 2 h) was 135 ng/mL and 83.0 ng/mL, the “Compound A Plasma Levels” value ([3]; Day 8, 100 mg, 24 h) was 1.73 ng/mL and 1.27 ng/mL and the “Compound A Plasma Levels” value ([3]; Day 8, 200 mg, 0 h) was 5.13 ng/mL and 3.53 ng/mL. The “Compound A Plasma Levels” value ([3]; Day 8, 200 mg, 1 h) was 239 ng/mL, the “Compound A Plasma Levels” value ([3]; Day 8, 200 mg, 2 h) was 273 ng/mL and 295 ng/mL and the “Compound A Plasma Levels” value ([3]; Day 8, 400 mg, 4 h) was 214 ng/mL and 217 ng/mL. For the same compound, the concentration at 0 h ([3]; human, plasma, oral, 50 mg, Compound A Plasma Levels, Day 1, 50 mg, 0 h) was 0 ng/mL, the concentration at 24 h ([3]; human, plasma, oral, 50 mg, Compound A Plasma Levels, Day 1, 50 mg, 24 h) was 0 ng/mL and the concentration at 24 h ([3]; human, plasma, oral, 50 mg, Compound A Plasma Levels, Day 8, 50 mg, 24 h) was 0 ng/mL. It also gave a concentration at 0 h ([3]; human, plasma, oral, 100 mg, Compound A Plasma Levels, Day 1, 100 mg, 0 h) of 0 ng/mL, a concentration at 2 h ([3]; human, plasma, oral, 100 mg, Compound A Plasma Levels, Day 1, 100 mg, 2 h) of 192 ng/mL and a concentration at 6 h ([3]; human, plasma, oral, 100 mg, Compound A Plasma Levels, Day 1, 100 mg, 6 h) of 29.1 ng/mL. For the same compound, the concentration at 2 h ([3]; human, plasma, oral, 100 mg, Compound A Plasma Levels, Day 8, 100 mg, 2 h) was 166 ng/mL, the concentration at 24 h ([3]; human, plasma, oral, 100 mg, Compound A Plasma Levels, Day 8, 100 mg, 24 h) was 1.34 ng/mL and the concentration at 0 h ([3]; human, plasma, oral, 200 mg, Compound A Plasma Levels, Day 1, 200 mg, 0 h) was 0 ng/mL. The concentration at 0 h ([3]; human, plasma, oral, 200 mg, Compound A Plasma Levels, Day 8, 200 mg, 0 h) was 3.69 ng/mL, the concentration at 1 h ([3]; human, plasma, oral, 200 mg, Compound A Plasma Levels, Day 8, 200 mg, 1 h) was 369 ng/mL and the concentration at 2 h ([3]; human, plasma, oral, 200 mg, Compound A Plasma Levels, Day 8, 200 mg, 2 h) was 537 ng/mL. It also gave a concentration at 0 h ([3]; human, plasma, oral, 400 mg, Compound A Plasma Levels, Day 1, 400 mg, 0 h) of 0 ng/mL, a concentration at 4 h ([3]; human, plasma, oral, 400 mg, Compound A Plasma Levels, Day 1, 400 mg, 4 h) of 134 ng/mL and a concentration at 6 h ([3]; human, plasma, oral, 400 mg, Compound A Plasma Levels, Day 1, 400 mg, 6 h) of 85.9 ng/mL. For the same compound, the concentration at 4 h ([3]; human, plasma, oral, 400 mg, Compound A Plasma Levels, Day 8, 400 mg, 4 h) was 159 ng/mL, the “discontinuation due to AEs and deaths” value ([4]; five patients) was “No patient discontinued study treatment due to AEs and no patient died on-study or within the 30-day follow-up period” and the “hematologic single patient events” value ([4]; five patients) was “Grade 3 thrombocytopenia and Grade 3 neutropenia”. For the same compound, the “non-hematologic single patient events” value ([4]; five patients) was “Grade 3 lung infection, bronchitis, myalgia, nausea, fatigue and purpura (all Grade 1)”, the “anemia, patients” value ([4]; five patients, 50-200 mg daily, 21 day dosing schedule) was 60% and the “arthralgia, patients” value [4, 5] was 40%. For the same compound, the “contusion, patients” value [4, 5] was 40%, the “grade of adverse events” value [4, 5] was “mostly Grade 1 and 2” and the “upper respiratory infection, patients” value [4, 5] was 40%. The tolerability ([4]; three additional patients, 300 mg) was “well tolerated”.

— patent US11622965B2, “Methods for treating lymphoid malignancies” (ZHEJIANG DTRM BIOPHARMA CO. LTD., priority 2017, dated 2023)
